According to US20230322756A1, “FUSED IMIDAZOLE DERIVATIVE, PREPARATION METHOD THEREFOR, AND MEDICAL USE THEREOF” (JIANGSU HENGRUI MEDICINE CO., LTD., priority 2020, published 2023):
pEC50: −log10 of the molar value.

Target: GLP-1 receptor (Homo sapiens (Human), UniProt P43220)
Test: Agonist activity against GLP-1 receptor, CRE-luciferase reporter (ONE-Glo) in CHO-K1/CRE-luc/GLP-1 receptor cells
Type: cell-based
Details: 6 h incubation
Description: This experiment was intended to test the agonist activity of the compound molecules against the GLP-1 receptor and evaluate the in vitro activity of the molecules according to EC50. The experiment adopted a ONE-Glo™ Luciferase Assay System (Promega, E6110). Under the action of compound molecules, GLP-1R downstream signaling pathways were activated to cause elevated cAMP level. The combination of cAMP and CRE could start the transcription expression of CRE downstream luciferase genes, the luciferase could emit fluorescence when reacting with substrates thereof, and the activity of the compound for agonizing GLP-1 receptors was reflected by measuring fluorescence signals through a ONE-Glo™ reagent.
Stably-expressed CHO-K1/CRE-luc/GLP-1 receptor cell strains (self-construction of GLP-1 receptor plasmid; CRE-luc plasmid Promega E8471) were constructed. CHO-K1/CRE-luc/GLP-1 receptor cells were digested, and resuspended after centrifugation. […] The plate was incubated in an incubator for 16 h (37° C., 5% CO2).
The compound was dissolved in DMSO to prepare a stock solution with an initial concentration of 20 mM. The starting concentration of the small molecule compound was 0.2 mM, and the compound underwent 3-fold serial dilution for a total of 10 concentration points, with DMSO at the 11th point. To another 96-well plate was added 95 μL of cell culture medium (DME/F-12+10% FBS), 5 μL of test samples with different concentrations were added to each well, followed by uniform mixing, and then 10 μL of test samples with different concentrations were added to each well, with two duplicate wells set for each sample. The plate was incubated in an incubator for 6 h (37° C., 5% CO2). The 96-well cell culture plate was taken out, and 100 μL of ONE-Glo™ reagent was added to each well, followed by incubation at room temperature for 10 min. The plate was placed in a microplate reader (EnVision 2105, PE) for determination of chemiluminescence.
Data were processed and analyzed using Microsoft Excel and Graphpad Prism 5.

Chain of GLP-1 receptor (P43220 24-463): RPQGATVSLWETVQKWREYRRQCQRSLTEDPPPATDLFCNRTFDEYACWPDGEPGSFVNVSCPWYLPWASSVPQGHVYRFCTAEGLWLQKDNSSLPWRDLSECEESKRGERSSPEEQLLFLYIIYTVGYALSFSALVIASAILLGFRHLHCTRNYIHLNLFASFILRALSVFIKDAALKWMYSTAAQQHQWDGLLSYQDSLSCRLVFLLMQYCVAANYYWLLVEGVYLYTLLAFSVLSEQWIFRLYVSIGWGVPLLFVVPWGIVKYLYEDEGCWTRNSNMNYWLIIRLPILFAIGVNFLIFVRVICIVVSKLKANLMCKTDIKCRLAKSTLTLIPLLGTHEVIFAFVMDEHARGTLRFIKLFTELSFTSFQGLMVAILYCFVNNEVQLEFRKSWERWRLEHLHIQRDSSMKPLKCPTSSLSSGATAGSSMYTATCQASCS

- pEC50: 9.92
- Emax: 107%
SMILES: O=C(O)c1ccc2nc(CN3CCC(c4cccc5c4O[C@@H](c4ccc(Cl)cc4F)CO5)CC3)n(C[C@@H]3CCO3)c2n1 [Example 5, 2-((4-((S)-3-(4-Chloro-2-fluorophenyl)-2,3-dihydrobenzo[b][1,4]dioxan-5-yl)piperidin-1-yl)methyl)-3-((S)-oxetan-2-ylmethyl)-3H-imidazo[4,5-b]pyridine-5-carboxylic acid]
